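Dose response: 5 concentrations. Exposure: 48 h. Format: 96-well plates. Endpoint: linear interpolation; highest concentration if not reached. Abbreviation: GI50, concentration required for 50% inhibition of growth. TGI: total growth inhibition.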
Experiments:
Experiment in all cases: inhibition of tumour cell growth, NCI panel, 48 h
786-0 renal = tested on: 786-0 renal
A498 renal = tested on: A498 renal
A549 NSCLC = tested on: A549 NSCLC
ACHN renal = tested on: ACHN renal
BT-549 breast = tested on: BT-549 breast
CAKI-1 renal = tested on: CAKI-1 renal
CCRF-CEM leukemia = tested on: CCRF-CEM leukemia
COLO 205 colon = tested on: COLO 205 colon
DU-145 prostate = tested on: DU-145 prostate
EKVX NSCLC = tested on: EKVX NSCLC
HCC-2998 colon = tested on: HCC-2998 colon
HCT-116 colon = tested on: HCT-116 colon
HCT-15 colon = tested on: HCT-15 colon
HL-60(TB) leukemia = tested on: HL-60(TB) leukemia
HOP-62 NSCLC = tested on: HOP-62 NSCLC
HOP-92 NSCLC = tested on: HOP-92 NSCLC
HS 578T breast = tested on: HS 578T breast
HT29 colon = tested on: HT29 colon
IGROV1 ovarian = tested on: IGROV1 ovarian
K-562 leukemia = tested on: K-562 leukemia
KM12 colon = tested on: KM12 colon
LOX IMVI melanoma = tested on: LOX IMVI melanoma
M14 melanoma = tested on: M14 melanoma
MALME-3M melanoma = tested on: MALME-3M melanoma
MCF7 breast = tested on: MCF7 breast
MDA-MB-231 breast = tested on: MDA-MB-231 breast
MDA-MB-435 = tested on: MDA-MB-435
MDA-MB-468 breast = tested on: MDA-MB-468 breast
MOLT-4 leukemia = tested on: MOLT-4 leukemia
NCI-H226 lung = tested on: NCI-H226 lung
NCI-H23 lung = tested on: NCI-H23 lung
NCI-H460 lung = tested on: NCI-H460 lung
NCI-H522 lung = tested on: NCI-H522 lung
NCI/ADR-RES ovarian = tested on: NCI/ADR-RES ovarian
OVCAR-3 ovarian = tested on: OVCAR-3 ovarian
OVCAR-4 ovarian = tested on: OVCAR-4 ovarian
OVCAR-5 ovarian = tested on: OVCAR-5 ovarian
OVCAR-8 ovarian = tested on: OVCAR-8 ovarian
PC-3 prostate = tested on: PC-3 prostate
RXF 393 renal = tested on: RXF 393 renal
SF-268 CNS = tested on: SF-268 CNS
SF-295 CNS = tested on: SF-295 CNS
SF-539 CNS = tested on: SF-539 CNS
SK-MEL-2 melanoma = tested on: SK-MEL-2 melanoma
SK-MEL-28 melanoma = tested on: SK-MEL-28 melanoma
SK-MEL-5 melanoma = tested on: SK-MEL-5 melanoma
SK-OV-3 ovarian = tested on: SK-OV-3 ovarian
SN12C renal = tested on: SN12C renal
SNB-19 CNS = tested on: SNB-19 CNS
SNB-75 CNS = tested on: SNB-75 CNS
SR leukemia = tested on: SR leukemia
SW-620 colon = tested on: SW-620 colon
T-47D breast = tested on: T-47D breast
TK-10 renal = tested on: TK-10 renal
U251 CNS = tested on: U251 CNS
UACC-257 melanoma = tested on: UACC-257 melanoma
UACC-62 melanoma = tested on: UACC-62 melanoma
UO-31 renal = tested on: UO-31 renal

Compound: O=C(NCCCCC(c1ccc(F)cc1)c1ccc(F)cc1)Nc1ccc([N+](=O)[O-])c(C(F)(F)F)c1
- GI50 (786-0 renal): 2.26 µM
- TGI (786-0 renal): 8.86 µM
- GI50 (A498 renal): 1.84 µM
- TGI (A498 renal): 5.51 µM
- GI50 (A549 NSCLC): 3.19 µM
- TGI (A549 NSCLC): 12.6 µM
- GI50 (ACHN renal): 1.63 µM
- TGI (ACHN renal): 6.81 µM
- GI50 (BT-549 breast): 1.86 µM
- TGI (BT-549 breast): 4.23 µM
- GI50 (CAKI-1 renal): 2.07 µM
- TGI (CAKI-1 renal): 6.5 µM
- GI50 (CCRF-CEM leukemia): 0.674 µM
- TGI (CCRF-CEM leukemia): 8.27 µM
- GI50 (COLO 205 colon): 1.73 µM
- TGI (COLO 205 colon): 3.24 µM
- GI50 (DU-145 prostate): 3.53 µM
- TGI (DU-145 prostate): 15.7 µM
- GI50 (EKVX NSCLC): 2.3 µM
- TGI (EKVX NSCLC): 8.53 µM
- GI50 (HCC-2998 colon): 2.61 µM
- TGI (HCC-2998 colon): 11.5 µM
- GI50 (HCT-116 colon): 0.521 µM
- TGI (HCT-116 colon): 2.81 µM
- GI50 (HCT-15 colon): 1.8 µM
- TGI (HCT-15 colon): 6.63 µM
- GI50 (HL-60(TB) leukemia): 3.19 µM
- TGI (HL-60(TB) leukemia): > 100 µM
- GI50 (HOP-62 NSCLC): 1.99 µM
- TGI (HOP-62 NSCLC): 4.62 µM
- GI50 (HOP-92 NSCLC): 1.03 µM
- TGI (HOP-92 NSCLC): 5.11 µM
- GI50 (HS 578T breast): 2.22 µM
- TGI (HS 578T breast): 6.22 µM
- GI50 (HT29 colon): 3.22 µM
- TGI (HT29 colon): 13.4 µM
- GI50 (IGROV1 ovarian): 2.71 µM
- TGI (IGROV1 ovarian): 12.5 µM
- GI50 (K-562 leukemia): 0.561 µM
- TGI (K-562 leukemia): > 100 µM
- GI50 (KM12 colon): 2.07 µM
- TGI (KM12 colon): 7.77 µM
- GI50 (LOX IMVI melanoma): 1.69 µM
- TGI (LOX IMVI melanoma): 3.37 µM
- GI50 (M14 melanoma): 2.08 µM
- TGI (M14 melanoma): 6.63 µM
- GI50 (MALME-3M melanoma): 1.84 µM
- TGI (MALME-3M melanoma): 4.64 µM
- GI50 (MCF7 breast): 2.14 µM
- TGI (MCF7 breast): 10.1 µM
- GI50 (MDA-MB-231 breast): 1.82 µM
- TGI (MDA-MB-231 breast): 3.72 µM
- GI50 (MDA-MB-435): 2.15 µM
- TGI (MDA-MB-435): 7.58 µM
- GI50 (MDA-MB-468 breast): 0.559 µM
- TGI (MDA-MB-468 breast): 3.08 µM
- GI50 (MOLT-4 leukemia): 2.81 µM
- TGI (MOLT-4 leukemia): > 100 µM
- GI50 (NCI-H226 lung): 2.16 µM
- TGI (NCI-H226 lung): 6.55 µM
- GI50 (NCI-H23 lung): 2.27 µM
- TGI (NCI-H23 lung): 8.51 µM
- GI50 (NCI-H460 lung): 1.61 µM
- TGI (NCI-H460 lung): 5.54 µM
- GI50 (NCI-H522 lung): 1.74 µM
- TGI (NCI-H522 lung): 5.17 µM
- GI50 (NCI/ADR-RES ovarian): 2.36 µM
- TGI (NCI/ADR-RES ovarian): 8.68 µM
- GI50 (OVCAR-3 ovarian): 1.52 µM
- TGI (OVCAR-3 ovarian): 5.31 µM
- GI50 (OVCAR-4 ovarian): 2.81 µM
- TGI (OVCAR-4 ovarian): 15.8 µM
- GI50 (OVCAR-5 ovarian): 2.28 µM
- TGI (OVCAR-5 ovarian): 7.89 µM
- GI50 (OVCAR-8 ovarian): 3.24 µM
- TGI (OVCAR-8 ovarian): 16 µM
- GI50 (PC-3 prostate): 0.415 µM
- TGI (PC-3 prostate): 8.72 µM
- GI50 (RXF 393 renal): 2.23 µM
- TGI (RXF 393 renal): 6.25 µM
- GI50 (SF-268 CNS): 2.92 µM
- TGI (SF-268 CNS): 12.4 µM
- GI50 (SF-295 CNS): 0.972 µM
- TGI (SF-295 CNS): 3.73 µM
- GI50 (SF-539 CNS): 1.92 µM
- TGI (SF-539 CNS): 4.01 µM
- GI50 (SK-MEL-2 melanoma): 1.92 µM
- TGI (SK-MEL-2 melanoma): 4.07 µM
- GI50 (SK-MEL-28 melanoma): 3.03 µM
- TGI (SK-MEL-28 melanoma): 11.5 µM
- GI50 (SK-MEL-5 melanoma): 1.59 µM
- TGI (SK-MEL-5 melanoma): 2.97 µM
- GI50 (SK-OV-3 ovarian): 2.26 µM
- TGI (SK-OV-3 ovarian): 6.05 µM
- GI50 (SN12C renal): 1.98 µM
- TGI (SN12C renal): 6.52 µM
- GI50 (SNB-19 CNS): 2.91 µM
- TGI (SNB-19 CNS): 16.1 µM
- GI50 (SNB-75 CNS): 1.65 µM
- TGI (SNB-75 CNS): 7.64 µM
- GI50 (SR leukemia): 2.97 µM
- TGI (SR leukemia): > 100 µM
- GI50 (SW-620 colon): 2.26 µM
- TGI (SW-620 colon): 10.9 µM
- GI50 (T-47D breast): 1.85 µM
- TGI (T-47D breast): 6.93 µM
- GI50 (TK-10 renal): 2.94 µM
- TGI (TK-10 renal): 10.9 µM
- GI50 (U251 CNS): 2.2 µM
- TGI (U251 CNS): 5.98 µM
- GI50 (UACC-257 melanoma): 2.48 µM
- TGI (UACC-257 melanoma): 7.97 µM
- GI50 (UACC-62 melanoma): 1.33 µM
- TGI (UACC-62 melanoma): 2.84 µM
- GI50 (UO-31 renal): 1.82 µM
- TGI (UO-31 renal): 7.43 µM

Source: PubChem BioAssay (NCI)
